One series deals with Aphis fabae (aphids). Kind of series: Insecticidal mortality test, contact, aphids. The following applies: French beans, 2 days. It is filed as in vivo. As for the experimental part:
(§1) The activity of the compound was determined using a variety of insect pests. The compound was used in the form of liquid preparations containing 100, 50, 25, 10 or […] p.p.m. by weight of the compound. The preparations were made by dissolving the compound in a mixture of solvents consisting of 4 parts by volume of acetone and 1 part by volume of diacetone alcohol. The solutions were then diluted with water containing 0.01% by weight of a wetting agent sold under the trade name "LISSAPOL" NX until the liquid preparations contained the required concentration of the compound. "Lissapol" is a Trade Mark.
(§2) The test procedure adopted with regard to each pest was basically the same and comprised supporting a number of the pests on a medium which was usually a host plant or a foodstuff on which the pests feed, and treating either or both the pests and the medium with the preparations. The mortality of the pests was then assessed at periods usually varying from one to three days after the treatment.
(§3) The results of the tests are given in Table IIB for each of the products A to H at the rate in parts per million given in the second column as a grading of mortality on a scale of 0-9 wherein
(§4) In Table IIB the pest organism used is designated by a letter code and the pest species, the support medium or food, and the type and duration of test is given in Table IIA.

In series [1] the test system is Diabrotica balteata (rootworm - larvae). Briefly: Insecticidal mortality test, contact, rootworm. The class given is in vivo. Conditions: filter paper, 3 days. As for the experimental part: as §1, §2, §3, §4
The nature of series [2]: Fish toxicity, young trout. The following applies: in vivo. An excerpt: (§5) This Example illustrates the improved safety to fish of the compounds for use in the method of the invention compared with known compounds of similar chemical type. Table III sets out the LC50 values for young trout and carp in parts per million for the compounds for use in the method of this invention and parts per billion for the known (reference) compounds.

Series [3] deals with Spodoptera littoralis (cotton leaf worm - larvae). Briefly: Insecticidal mortality test, contact/residual, cotton leaf worm. The class given is in vivo. The following applies: cabbage leaves, 3 days. As for the experimental part:
as §1, §2, §3, §4

The test system of series [4] is Plutella xylostella (diamond back moth - larvae). Briefly: Insecticidal mortality test, residual, diamond back moth. The class given is in vivo. Conditions: cabbage leaves, 3 days. As to the method:
as §1, §2, §3, §4

Series [5] has as its system Musca domestica (houseflies - adults). Briefly: Insecticidal mortality test, contact, houseflies. The class given is in vivo. The following applies: cotton wool/milk, sugar, 1 day. As for the experimental part: as §1, §2, §3, §4
Series [6] is described as follows: Fish toxicity, young carp. Conditions: in vivo.
Source text: as §5

Converted amounts (≈) assume the structure as drawn.

Consider `CC1(C)[C@H](C(=O)OCc2cccc(Oc3ccc(Cl)cc3)c2)[C@@H]1/C=C(\Cl)C(F)(F)F` (racemic) [Compound 5, (+)-3-(4-chlorophenoxy)benzyl (+)-cis-3-(Z-2-chloro-3,3,3-trifluoroprop-l-en-yl)-2,2-dimethylcyclopropane carboxylate], for which the “grading of mortality AF” value in the series on Aphis fabae (aphids) (rate 10 ppm) and with Aphis fabae (aphids) (rate 100 ppm) was 9 (90 to 100%) each time. The “grading of mortality DB” value in series [1] (rate 10 ppm) is given as 3 (30 to 39%); in series [1] (rate 100 ppm), 5 (50 to 59%). In series [2] (compounds of the invention), the LC50 was 10 µg/mL (≈ 21.8 µM). Also, the “grading of mortality SL” value in series [3] (rate 10 ppm) and in series [3] (rate 100 ppm) was 9 (90 to 100%) throughout. Further, the “grading of mortality PX” value in series [4] (rate 10 ppm) is recorded as 0 (less than 10% mortality); in series [4] (rate 100 ppm), 9 (90 to 100%). Also, the “grading of mortality MD” value in series [5] (rate 10 ppm) is reported as 1 (from 10 to 19%); in series [5] (rate 100 ppm), 9 (90 to 100%).
In the case of `CC1(C)[C@H](/C=C(\Cl)C(F)(F)F)[C@@H]1C(=O)OC(C#N)c1cccc(Oc2ccc(Br)cc2)c1` (mixture of isomers) [Compound 6, (+)-α-cyano-3-(4-bromophenoxy)benzyl (+)-cis-3-(Z-2-chloro-3,3,3-trifluoroprop-1-en-1-yl)-2,2-dimethylcyclopropane carboxylate], the “grading of mortality AF” value in the series with Aphis fabae (aphids) (rate 10 ppm) and in the series with Aphis fabae (aphids) (rate 100 ppm) was 9 (90 to 100%) throughout. In series [6] (compounds of the invention), this compound had an LC50 of 10 µg/mL (≈ 18.9 µM). Also, the “grading of mortality DB” value is given as 3 (30 to 39%) in series [1] (rate 10 ppm) and 5 (50 to 59%) in series [1] (rate 100 ppm). Also, the “grading of mortality SL” value in series [3] (rate 10 ppm) and in series [3] (rate 100 ppm) was 9 (90 to 100%) throughout. The results for the “grading of mortality PX” value in series [4] (rate 10 ppm) and in series [4] (rate 100 ppm) were 6 (60 to 69%) and 7 (70 to 79%), respectively. For the same compound, the “grading of mortality MD” value in series [5] (rate 10 ppm) is 6 (60 to 69%); in series [5] (rate 100 ppm) it was 9 (90 to 100%).
In the case of `CC1(C)[C@H](/C=C(\Cl)C(F)(F)F)[C@@H]1C(=O)OC(C#N)c1cccc(Oc2ccc(F)cc2)c1` (mixture of isomers) [Compound 7, (+)-α-cyano-3-(4-fluorophenoxy)benzyl (+)-cis-3-(Z-2-chloro-3,3,3-trifluoroprop-1-en-1-yl)-2,2-dimethylcyclopropane carboxylate], the “grading of mortality AF” value in the series on Aphis fabae (aphids) (rate 10 ppm) and with Aphis fabae (aphids) (rate 100 ppm) was 9 (90 to 100%) each time. Further, the entries for the “grading of mortality DB” value in series [1] (rate 10 ppm) and in series [1] (rate 100 ppm) were 5 (50 to 59%) and 9 (90 to 100%), respectively. In series [2] (compounds of the invention), this compound yielded an LC50 of 1 µg/mL (≈ 2.14 µM). The “grading of mortality SL” value in series [3] (rate 10 ppm) and in series [3] (rate 100 ppm) was 9 (90 to 100%) in each case. The “grading of mortality PX” value in series [4] (rate 10 ppm) and in series [4] (rate 100 ppm) was 9 (90 to 100%) throughout. The “grading of mortality MD” value in series [5] (rate 10 ppm) and in series [5] (rate 100 ppm) was 0 (less than 10% mortality) throughout.
In the case of `CC1(C)C(/C=C(\Cl)C(F)(F)F)C1C(=O)OC(C#N)c1cccc(Oc2ccccc2)c1` (racemic) [Cyhalothrin, (±)-α-cyano-3-phenoxybenzyl (±)-cis-3-(Z-2-chloro-3,3,3-trifluoroprop-1-en-1-yl)-2,2-dimethylcyclopropane carboxylate, reference compound], the figures for the LC50 in series [6] (known (reference) compounds) and in series [2] (known (reference) compounds) were 0.00134 µg/mL (≈ 0.00298 µM) and 0.00073 µg/mL (≈ 0.00162 µM), respectively.
On to `CC1(C)C(C=C(Cl)Cl)C1C(=O)OC(C#N)c1cccc(Oc2ccccc2)c1` (racemic) [Cypermethrin, (±)-α-cyano-3-phenoxybenzyl (±)-cis/trans-3-(2,2-dichlorovinyl)-2,2-dimethylcyclopropane carboxylate, reference compound], for which, in series [2] (known (reference) compounds), the LC50 was roughly 0.002 µg/mL (≈ 0.0048 µM).
With `CC1(C)[C@H](C(=O)OC(C#N)c2cccc(Oc3ccc(Cl)cc3)c2)[C@@H]1/C=C(\Cl)C(F)(F)F` (stereo partly drawn) [Compound 1, (+)-χ-cyano-3-(4-chlorophenoxy)benzyl (+)-cis-3-(Z-2-chloro-3,3,3-trifluoroprop-l-en-l-yl)-2,2-dimethylcyclopropane carboxylate], the “grading of mortality AF” value with Aphis fabae (aphids) (rate 12 ppm), in the series on Aphis fabae (aphids) (rate 25 ppm), in the series with Aphis fabae (aphids) (rate 50 ppm) and with Aphis fabae (aphids) (rate 100 ppm) was 9 (90 to 100%) throughout. For the same compound, the “grading of mortality DB” value in series [1] (rate 12 ppm) is 0 (less than 10% mortality); in series [1] (rate 25 ppm), 0 (less than 10% mortality); in series [1] (rate 50 ppm) it was 9 (90 to 100%); in series [1] (rate 100 ppm), 9 (90 to 100%). In series [2] (compounds of the invention), this compound came in with an LC50 of 20 µg/mL (≈ 41.3 µM). Moreover, the “grading of mortality SL” value in series [3] (rate 12 ppm) is reported as 0 (less than 10% mortality); in series [3] (rate 25 ppm) it was 0 (less than 10% mortality); in series [3] (rate 50 ppm) it was 9 (90 to 100%); in series [3] (rate 100 ppm), 9 (90 to 100%). In addition, the “grading of mortality PX” value is reported as 2 (20 to 29%) in series [4] (rate 12 ppm), 7 (70 to 79%) in series [4] (rate 25 ppm), 9 (90 to 100%) in series [4] (rate 50 ppm) and 9 (90 to 100%) in series [4] (rate 100 ppm). The “grading of mortality MD” value in series [5] (rate 12 ppm), in series [5] (rate 25 ppm), in series [5] (rate 50 ppm) and in series [5] (rate 100 ppm) was 9 (90 to 100%) each time.
As to `CC1(C)[C@H](/C=C(\Cl)C(F)(F)F)[C@H]1C(=O)OC(C#N)c1cccc(Oc2ccc(Cl)cc2)c1` (stereo partly drawn) [Compound 8, (+)-α-cyano-3-(4-chlorophenoxy)benzyl (+)-trans-3-(Z-2-chloro-3,3,3-trifluoroprop-l-en-yl)-2,2-dimethylcyclopropane carboxylate], the “grading of mortality AF” value with Aphis fabae (aphids) (rate 10 ppm) and in the series with Aphis fabae (aphids) (rate 100 ppm) was 9 (90 to 100%) in each case. Moreover, the “grading of mortality DB” value in series [1] (rate 10 ppm) is reported as 0 (less than 10% mortality); in series [1] (rate 100 ppm) it was 5 (50 to 59%). Also, the “grading of mortality SL” value in series [3] (rate 10 ppm) and in series [3] (rate 100 ppm) was 9 (90 to 100%) in each case. For the same compound, the “grading of mortality PX” value in series [4] (rate 10 ppm) is given as 8 (80 to 89%); in series [4] (rate 100 ppm), 9 (90 to 100%). Besides, the “grading of mortality MD” value in series [5] (rate 10 ppm) and in series [5] (rate 100 ppm) was 9 (90 to 100%) each time.

As a reminder, the LC50 is the concentration that kills 50% of the test population. Higher therefore signals a less lethal substance.

The values are drawn from patent EP0091208A1, “Method for combating insect pests, and novel cyclopropane carboxylates useful as active ingredients therein” (IMPERIAL CHEMICAL INDUSTRIES PLC, priority 1982, dated 1983).
